We go through five compounds from patent US8324226B2, “Therapeutic oxy-phenyl-aryl compounds and their use” (Cancer Research Technology Limited, priority 2007, dated 2012).

For the test, the target named is T1, CHK2 (Homo sapiens, UniProt O96017).
T1 construct: made in house
Put plainly: CHK2 kinase activity assay (DELFIA, phosphorylation of a CDC25C peptide). The class given is biochemical. The settings on record: ATP 30 μM, CHK2 1 nM, read-out: IC50, inhibition of CHK2 kinase activity in vitro.

Like-named read-outs stand apart in the source and are kept apart here.

T1 sequence (O96017 whole entry): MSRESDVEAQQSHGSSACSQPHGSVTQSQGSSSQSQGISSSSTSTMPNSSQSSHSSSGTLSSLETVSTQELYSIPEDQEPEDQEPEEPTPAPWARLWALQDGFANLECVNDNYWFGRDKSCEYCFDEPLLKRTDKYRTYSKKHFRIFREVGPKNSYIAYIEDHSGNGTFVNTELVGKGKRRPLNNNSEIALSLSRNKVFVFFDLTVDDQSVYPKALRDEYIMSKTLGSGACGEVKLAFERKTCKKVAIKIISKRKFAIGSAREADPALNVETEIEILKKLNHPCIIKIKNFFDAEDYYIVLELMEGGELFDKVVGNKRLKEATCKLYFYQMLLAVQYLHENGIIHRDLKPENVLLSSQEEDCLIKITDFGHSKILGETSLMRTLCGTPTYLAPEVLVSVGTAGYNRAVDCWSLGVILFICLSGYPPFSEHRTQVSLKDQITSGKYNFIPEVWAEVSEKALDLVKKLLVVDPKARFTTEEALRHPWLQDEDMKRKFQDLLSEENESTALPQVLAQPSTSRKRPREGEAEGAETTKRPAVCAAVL

For the compound `CN(c1nc(-c2cc(F)ccc2O)nc2ccccc12)[C@H]1CCNC1` [Compound A-043, (S)-4-Fluoro-2-(4-(methyl(pyrrolidin-3-yl)amino)quinazolin-2-yl)phenol], the concentration for half-maximal inhibition (IC50) (commonly the concentration that gives 50% inhibition) was less than 3000 nM (first set of tested compounds) and no more than 300 nM (following further studies).
As to `CC(C)(O)CCc1ccc2c(N[C@H]3CCNC3)nc(-c3cc(F)ccc3O)nc2c1` [Compound A-097, (S)-4-Fluoro-2-(7-(3-hydroxy-3-methylbutyl)-4-(pyrrolidin-3-ylamino)quinazolin-2-yl)phenol], the IC50 (following further studies) is no more than 300 nM.
Regarding `CCN(C)C(=O)[C@H]1C[C@H](Nc2nc(-c3ccccc3O)nc3ccccc23)CN1` [Compound A-050, (2R,4S)-N-Ethyl-4-(2-(2-hydroxyphenyl)quinazolin-4-ylamino)-N-methylpyrrolidine-2-carboxamide], the IC50 reads like this: (first set of tested compounds) less than 3000 nM; (following further studies) no more than 300 nM.
Take `COC(=O)c1ccc(O)c(-c2nc(N[C@H]3CCNC3)c3ccccc3n2)c1` [Compound A-033, (S)-Methyl 4-hydroxy-3-(4-(pyrrolidin-3-ylamino)quinazolin-2-yl)benzoate]: the IC50 was less than 3000 nM (first set of tested compounds) and no more than 300 nM (following further studies).
Consider `OCCCc1ccc2c(N[C@H]3CCNC3)nc(-c3cc(F)ccc3O)nc2c1` [Compound A-071, (S)-4-Fluoro-2-(7-(3-hydroxypropyl)-4-(pyrrolidin-3-ylamino)quinazolin-2-yl)phenol], for which the IC50 (following further studies) was no more than 300 nM.
